The source made the active and inactive calls. The calls are words filed in the database; no cut-off is given here.
Tests used:
[1] = Cytotoxicity against human HMLE cells expressing shRNA and GFP after 70 to 74 hrs by Cell Titer Glo assay; type: cell-based
[2] = Selectivity ratio of EC50 for human HMLE cells expressing shRNA and GFP to EC50 for human CSC-like HMLE cells expressing shRNA and epithelial cadherin; type: ADME, cell-based; settings: read-out: Ratio EC50
[3] = Cytotoxicity against human CSC-like HMLE cells expressing shRNA and epithelial cadherin after 70 to 74 hrs by Cell Titer Glo assay; type: functional, cell-based
[4] = target: D(2) dopamine receptor (Homo sapiens) (UniProt P14416); settings: CHO, 10 uM
[5] = target: D(4) dopamine receptor (Homo sapiens) (UniProt P21917); settings: CHO-K1, 10 uM
[6] = target: Histamine H2 receptor (Homo sapiens) (UniProt P25021); test: Displacement of [125I]Aminopotentidine from human recombinant histamine H2 receptor expressed in CHOK1 cells at 10 uM after 2 hrs relative to control; type: cell-based; settings: CHO-K1
[7] = target: Platelet-activating factor receptor (Homo sapiens) (UniProt P25105); test: Displacement of [3H]PAF from platelet activating factor receptor in human platelets at 10 uM after 3 hrs relative to control
[8] = target: Mu-type opioid receptor (Homo sapiens) (UniProt P35372); settings: CHO-K1, 10 uM
[9] = Selectivity ratio of EC50 for human CSC-like HMLE cells expressing shRNA and epithelial cadherin to EC50 for human HMLE cells expressing shRNA and GFP; type: ADME, cell-based; settings: read-out: Ratio EC50
Rattus norvegicus [10] = species: Rattus norvegicus; test: Displacement of [3H]Rolipram from rolipram binding site in Wistar rat brain at 10 uM after 60 mins relative to control
[11] = target: 5-hydroxytryptamine receptor 1A (Homo sapiens) (UniProt P08908); test: Displacement of [3H]8-OH-DPAT from human recombinant 5HT1A receptor expressed in CHOK1 cells at 10 uM after 60 mins relative to control; type: cell-based; settings: CHO-K1
[12] = target: 5-hydroxytryptamine receptor 3A (Homo sapiens) (UniProt P46098); settings: HEK293, 10 uM
[13] = target: T1, Glutamate NMDA receptor (Rattus norvegicus) (UniProt P35439+Q00959+Q00960+Q00961+Q62645+Q8VHN2+Q9R1M7); settings: Wistar, Cerebral cortex, 10 uM
Rattus norvegicus [14] = species: Rattus norvegicus; test: Displacement of [3H]Kainic acid from kainate receptor in Wistar rat brain at 10 uM after 60 mins relative to control
[15] = target: Neuropeptide Y receptor type 2 (Homo sapiens) (UniProt P49146); test: Displacement of [125I]Peptide-YY from neuropeptide Y receptor type 2 in human KAN-TS cells at 10 uM after 2 hrs relative to control; type: cell-based
[16] = target: Neuropeptide Y receptor type 2 (Homo sapiens, UniProt P49146); test: Displacement of [125I]Peptide YY from neuropeptide Y receptor type 2 in human KAN-TS cells after 2 hrs; type: cell-based
[17] = target: T1, Glutamate NMDA receptor (Rattus norvegicus); settings: Wistar, Cerebral cortex, 10 uM; remark: listed apart in the source
Mus musculus = species: Mus musculus; test: Displacement of [3H]PDBu from phorbol ester receptor in ICR mouse brain at 10 uM after 60 mins relative to control
[18] = Displacement of [3H]PDBu from phorbol ester receptor in ICR mouse brain after 60 mins
HMLE = test: Cytotoxicity against human CSC-like HMLE cells expressing shRNA and epithelial cadherin at 20 uM after 70 to 74 hrs by Cell Titer Glo assay; type: functional, cell-based
[19] = Solubility in PBS at 100 uM after 24 hrs at pH 7.4 by UPLC-MS analysis; type: physicochemical
[20] = target: Prostaglandin E2 receptor EP4 subtype (Homo sapiens) (UniProt P35408); test: Displacement of [3H]PGE2 from human recombinant prostanoid EP4 receptor in CHEM1 cells at 10 uM after 2 hrs relative to control; type: cell-based
[21] = Displacement of [3H]Idazoxan from central-type imidazole receptor 2 imidazoline binding site in Wistar rat cerebral cortex after 30 mins; type: tissue-based
Rattus norvegicus [22] = species: Rattus norvegicus; test: Displacement of [3H]Idazoxan from central-type imidazole receptor 2 imidazoline binding site in Wistar rat cerebral cortex at 10 uM after 30 mins relative to control; type: tissue-based

Chain of Neuropeptide Y receptor type 2 (P49146 whole entry): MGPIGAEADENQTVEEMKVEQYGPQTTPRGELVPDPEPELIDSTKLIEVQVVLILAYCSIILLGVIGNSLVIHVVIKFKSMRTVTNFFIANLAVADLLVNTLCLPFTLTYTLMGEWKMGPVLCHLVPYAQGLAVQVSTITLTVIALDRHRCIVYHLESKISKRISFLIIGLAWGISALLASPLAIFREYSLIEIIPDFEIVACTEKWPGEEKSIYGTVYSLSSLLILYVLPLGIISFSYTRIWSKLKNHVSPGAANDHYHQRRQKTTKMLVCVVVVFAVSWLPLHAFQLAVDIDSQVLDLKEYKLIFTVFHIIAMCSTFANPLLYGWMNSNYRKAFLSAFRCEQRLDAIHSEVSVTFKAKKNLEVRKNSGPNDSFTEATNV
Chain of Mu-type opioid receptor (Homo sapiens) (P35372 whole entry): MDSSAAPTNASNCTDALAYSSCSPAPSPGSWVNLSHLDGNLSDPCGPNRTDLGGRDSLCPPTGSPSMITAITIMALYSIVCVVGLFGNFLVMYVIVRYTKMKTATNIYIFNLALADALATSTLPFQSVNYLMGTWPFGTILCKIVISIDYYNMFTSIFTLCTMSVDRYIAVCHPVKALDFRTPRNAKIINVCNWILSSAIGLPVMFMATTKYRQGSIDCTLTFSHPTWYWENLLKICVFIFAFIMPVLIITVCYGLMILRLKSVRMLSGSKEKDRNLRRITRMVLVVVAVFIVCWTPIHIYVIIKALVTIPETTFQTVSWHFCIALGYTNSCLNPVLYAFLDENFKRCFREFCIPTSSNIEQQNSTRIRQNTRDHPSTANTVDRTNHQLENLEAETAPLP
Chain of D(2) dopamine receptor (Homo sapiens) (P14416 whole entry): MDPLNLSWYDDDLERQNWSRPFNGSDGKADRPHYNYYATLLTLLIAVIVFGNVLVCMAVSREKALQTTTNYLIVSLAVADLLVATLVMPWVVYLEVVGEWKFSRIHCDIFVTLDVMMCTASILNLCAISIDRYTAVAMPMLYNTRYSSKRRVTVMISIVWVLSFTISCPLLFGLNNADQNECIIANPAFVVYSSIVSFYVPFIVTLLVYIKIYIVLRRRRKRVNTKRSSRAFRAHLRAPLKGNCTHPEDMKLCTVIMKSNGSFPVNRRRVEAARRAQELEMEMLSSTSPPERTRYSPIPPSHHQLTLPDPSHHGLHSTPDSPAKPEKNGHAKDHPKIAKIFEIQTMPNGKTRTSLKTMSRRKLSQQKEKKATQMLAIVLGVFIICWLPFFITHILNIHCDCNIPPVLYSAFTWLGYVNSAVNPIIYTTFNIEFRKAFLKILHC
Chain of D(4) dopamine receptor (Homo sapiens) (P21917 whole entry): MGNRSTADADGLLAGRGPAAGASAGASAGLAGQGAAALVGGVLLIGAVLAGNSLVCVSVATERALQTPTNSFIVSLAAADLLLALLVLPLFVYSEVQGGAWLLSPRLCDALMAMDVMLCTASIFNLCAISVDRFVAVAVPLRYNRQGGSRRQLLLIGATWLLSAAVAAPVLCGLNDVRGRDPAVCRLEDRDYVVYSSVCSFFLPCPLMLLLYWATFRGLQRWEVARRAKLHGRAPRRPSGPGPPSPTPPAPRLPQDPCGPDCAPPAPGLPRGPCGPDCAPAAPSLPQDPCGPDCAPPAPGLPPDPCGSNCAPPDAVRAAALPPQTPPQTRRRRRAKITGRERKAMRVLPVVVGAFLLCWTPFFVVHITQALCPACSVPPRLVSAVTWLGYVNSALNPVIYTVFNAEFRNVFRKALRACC
Chain of 5-hydroxytryptamine receptor 1A (Homo sapiens) (P08908 whole entry): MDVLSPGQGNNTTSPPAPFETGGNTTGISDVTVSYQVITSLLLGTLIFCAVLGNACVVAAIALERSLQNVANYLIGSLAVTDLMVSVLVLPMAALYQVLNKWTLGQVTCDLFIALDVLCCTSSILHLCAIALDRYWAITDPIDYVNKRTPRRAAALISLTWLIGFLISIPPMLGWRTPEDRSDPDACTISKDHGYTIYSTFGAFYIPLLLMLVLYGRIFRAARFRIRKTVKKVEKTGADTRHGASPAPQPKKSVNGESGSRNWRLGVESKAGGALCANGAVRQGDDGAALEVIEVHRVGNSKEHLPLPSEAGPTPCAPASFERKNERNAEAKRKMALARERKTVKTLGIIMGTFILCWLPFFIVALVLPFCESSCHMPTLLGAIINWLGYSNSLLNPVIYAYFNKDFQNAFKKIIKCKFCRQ
Chain of Prostaglandin E2 receptor EP4 subtype (Homo sapiens) (P35408 whole entry): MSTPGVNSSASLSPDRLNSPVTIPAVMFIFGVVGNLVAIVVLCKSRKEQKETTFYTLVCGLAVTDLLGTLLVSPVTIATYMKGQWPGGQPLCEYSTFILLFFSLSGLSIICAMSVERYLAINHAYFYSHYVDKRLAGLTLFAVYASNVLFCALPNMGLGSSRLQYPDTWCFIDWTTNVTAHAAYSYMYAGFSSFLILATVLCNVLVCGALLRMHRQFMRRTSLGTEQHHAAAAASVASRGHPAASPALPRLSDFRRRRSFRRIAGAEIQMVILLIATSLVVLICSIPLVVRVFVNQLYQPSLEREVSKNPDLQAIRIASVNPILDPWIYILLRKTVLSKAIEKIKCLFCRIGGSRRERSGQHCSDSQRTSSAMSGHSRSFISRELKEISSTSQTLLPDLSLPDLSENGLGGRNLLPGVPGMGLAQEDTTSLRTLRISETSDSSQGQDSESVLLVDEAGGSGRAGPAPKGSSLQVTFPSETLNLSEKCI
Chain of Histamine H2 receptor (Homo sapiens) (P25021 whole entry): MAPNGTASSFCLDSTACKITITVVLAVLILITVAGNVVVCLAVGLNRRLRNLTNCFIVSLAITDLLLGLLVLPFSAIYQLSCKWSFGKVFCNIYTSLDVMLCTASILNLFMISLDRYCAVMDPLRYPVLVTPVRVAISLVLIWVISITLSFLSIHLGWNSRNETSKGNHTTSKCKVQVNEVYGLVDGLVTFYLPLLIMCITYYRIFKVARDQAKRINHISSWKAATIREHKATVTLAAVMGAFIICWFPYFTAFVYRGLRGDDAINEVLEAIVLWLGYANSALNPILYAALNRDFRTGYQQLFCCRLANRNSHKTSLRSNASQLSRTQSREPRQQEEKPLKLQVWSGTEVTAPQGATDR
Chain of 5-hydroxytryptamine receptor 3A (Homo sapiens) (P46098 whole entry): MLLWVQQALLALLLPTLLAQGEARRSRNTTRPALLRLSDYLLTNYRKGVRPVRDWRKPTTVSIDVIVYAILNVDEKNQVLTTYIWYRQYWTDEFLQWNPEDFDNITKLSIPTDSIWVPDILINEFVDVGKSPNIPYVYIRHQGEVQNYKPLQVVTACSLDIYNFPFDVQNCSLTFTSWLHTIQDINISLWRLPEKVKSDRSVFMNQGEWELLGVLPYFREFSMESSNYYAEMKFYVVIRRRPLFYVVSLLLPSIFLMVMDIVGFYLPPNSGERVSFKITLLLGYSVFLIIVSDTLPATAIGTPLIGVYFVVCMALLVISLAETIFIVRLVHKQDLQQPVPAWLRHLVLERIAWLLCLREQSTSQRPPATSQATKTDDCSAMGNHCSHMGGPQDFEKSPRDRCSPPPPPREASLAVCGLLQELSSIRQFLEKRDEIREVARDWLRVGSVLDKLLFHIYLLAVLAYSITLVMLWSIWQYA
Chain of Platelet-activating factor receptor (Homo sapiens) (P25105 whole entry): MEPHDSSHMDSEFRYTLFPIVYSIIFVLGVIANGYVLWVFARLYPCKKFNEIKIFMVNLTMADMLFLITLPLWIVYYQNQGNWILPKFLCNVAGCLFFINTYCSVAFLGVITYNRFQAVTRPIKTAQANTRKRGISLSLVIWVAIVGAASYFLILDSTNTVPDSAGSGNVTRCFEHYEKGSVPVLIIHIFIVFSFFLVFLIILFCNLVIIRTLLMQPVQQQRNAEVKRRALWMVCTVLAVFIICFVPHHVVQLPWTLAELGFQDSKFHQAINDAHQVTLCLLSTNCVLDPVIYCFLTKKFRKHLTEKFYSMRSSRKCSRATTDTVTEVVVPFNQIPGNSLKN
Chain of Neuropeptide Y receptor type 2 (Homo sapiens) (P49146 whole entry): as the sequence (P49146 whole entry) above

O=C(/C=C/c1cccc(Cl)c1)NC1=NCCS1
EC50 [1]: 21.5 µM | selectivity ratio [2]: 1.44 | EC50 [3]: 15 µM

O=C(CCCN1CCC2(CC1)C(=O)NCN2c1ccccc1)c1ccc(F)cc1
inhibition [4]: -3% | inhibition [5]: -3%

C/N=C(/NC#N)NCCSCc1csc(NC(=N)N)n1
inhibition [6]: 11%

CCCCCCCCCCCCCCCCOC[C@H](COP(=O)([O-])OCC[N+](C)(C)C)OC(C)=O
inhibition [7]: 6%

C[C@@H](NC(=O)[C@@H](N)Cc1ccc(O)cc1)C(=O)NCC(=O)N(C)[C@@H](Cc1ccccc1)C(=O)NCCO
inhibition [8]: 4%

CC(C)c1ccc(/C=C/C(=O)Nc2nncs2)cc1
selectivity ratio [9]: 0.73 | EC50 [1]: 13.6 µM | EC50 [3]: 9.97 µM

COc1ccc(C2CNC(=O)C2)cc1OC1CCCC1 (stereo not given)
inhibition (Rattus norvegicus [10]): 16%

CN1C[C@H](CNC(=O)OCc2ccccc2)C[C@@H]2c3cccc4c3c(cn4C)C[C@H]21
inhibition [11]: -8%

CC(C)c1ccc(/C=C/C(=O)Nc2nccn2C)cc1
selectivity ratio [9]: 1.28 | EC50 [1]: 4.65 µM | EC50 [3]: 5.97 µM

CN1[C@@H]2CC[C@H]1C[C@@H](OC(=O)c1cc(Cl)cc(Cl)c1)C2
inhibition [12]: 3%

N[C@@H](CCC(=O)O)C(=O)O
inhibition [13]: 10% | inhibition (Rattus norvegicus [14]): 0%

H-PAEDLARYYSALRHYITRRQRY-NH2
inhibition [15]: 6% | IC50 [16]: 0.00021 µM | Ki [16]: 0.00012 µM

O=C(/C=C/c1ccc(-c2cccnc2)cc1)NC1=NCCS1
EC50 [1]: 5.65 µM | selectivity ratio [2]: 1.47 | EC50 [3]: 3.85 µM

C[C@@]12NC(Cc3ccccc31)c1ccccc12
inhibition [17]: 1%

O=C(/C=C/c1ccc(Cl)cc1)NC1=NCCS1
EC50 [1]: 9.97 µM | selectivity ratio [2]: 0.73 | EC50 [3]: 13.6 µM

CCCCCCCCCCCCCC(=O)O[C@@H]1[C@@H](C)[C@@]2(O)[C@@H](C=C(CO)C[C@]3(O)C(=O)C(C)=C[C@@H]23)[C@@H]2C(C)(C)[C@]12OC(C)=O [PHORBOL MYRISTATE ACETATE]
inhibition (Mus musculus): -1% | IC50 [18]: 0.00079 µM | Ki [18]: 0.00059 µM

CC(C)(C)c1ccc(/C=C/C(=O)NC2=NCCS2)cc1
Activity (HMLE): inactive | EC50 [1]: 20.6 µM

CC(C)c1ccc(/C=C/C(=O)NC2=NCCS2)cc1
selectivity ratio [9]: 21.5 | EC50 [1]: 2.35 µM | EC50 [3]: 50.6 µM | solubility at 24 h, 100 µM [19]: < 1 µM

CC(C)c1ccc(/C=C/C(=O)NC2CCCC2)cc1
selectivity ratio [9]: 2.07 | EC50 [1]: 59.6 µM | EC50 [3]: 123 µM

CCCCC[C@H](O)/C=C/[C@H]1[C@H](O)CC(=O)[C@@H]1C/C=C\CCCC(=O)O
inhibition [20]: 5%

c1ccc2c(c1)OCC(C1=NCCN1)O2 (stereo not given) [IDAZOXAN]
IC50 [21]: 0.012 µM | Ki [21]: 0.008 µM | inhibition (Rattus norvegicus [22]): 11%

Source: ChEMBL document CHEMBL2390918, “Cinnamides as selective small-molecule inhibitors of a cellular model of breast cancer stem cells” (Bioorg Med Chem Lett, 2013)
